Laboratory results reported in patent US20250129096A1, “ANNULATED 2-AMINO-3-CYANO THIOPHENES AND DERIVATIVES FOR THE TREATMENT OF CANCER” (Boehringer Ingelheim Int'l GmbH Corp., priority 2021, published 2025).
Values after ≈ are worked out from the molar mass of the structure shown. Read-outs that look alike come from different tables or passages of the source.

Tests used:
[1] = system: AsPC-1 cells (pancreatic cancer, G12D); test: AsPC-1 CTG proliferation assay (120 h); format: cell-based; conditions: Homo sapiens, ASPC1, CellTiter-Glo
Method: The CTG assay is designed to measure quantitatively the proliferation of AsPC-1 cells (ATCC […]), using the CellTiter Glow Assay Kit (Promega G7571). Cells are grown in RPMI medium (ATCC) supplemented with Fetal Calf Serum (Life Technologies, Gibco BRL, Cat. No. 10270-106). On “day 0” 2000 AsPC-1 cells are seeded in 60 μL RPMI ATCC+10% FCS+ Penstrep in a 384-well plate, flat and clear bottom (Greiner, PNr. 781091). Cells are then incubated in the plates at 37° C. in a CO2 incubator overnight. On day 1, compounds (10 mM stock in DMSO) are added with the ECHO acoustic liquid handler system (Beckman Coulter), including DMSO controls. Plates are incubated for 120 h, and cell viability is measured using CellTiter-Glo luminescent cell viability reagent (Promega product code G7570). Viability (stated as percent of control) is defined as relative luminescence units RLU of each well divided by the RLU of cells in DMSO controls. IC50 values are determined from viability measurements by non-linear regression using a four-parameter model.

[2] = Metabolic (microsomal) stability assay, HLM; format: in vitro ADME; conditions: human liver microsomes, 1 μM test compound, predicted clearance as percent of liver blood flow
Method: The metabolic degradation of the test compound is assayed at 37° C. with pooled liver microsomes (mouse (MLM), rat (RLM) or human (HLM)). The final incubation volume of 48 μL per time point contains TRIS buffer (pH 7.5; 0.1 M), magnesium chloride (6.5 mM), microsomal protein (0.5 mg/mL for mouse/rat, 1 mg/mL for human specimens) and the test compound at a final concentration of 1 μM. Following a short preincubation period at 37° C., the reactions are initiated by addition of 12 μL beta-nicotinamide adenine dinucleotide phosphate, reduced form (NADPH, 10 mM) and terminated by transferring an aliquot into solvent after different time points (0, 5, 15, 30, 60 min). Additionally, the NADPH-independent degradation is monitored in incubations without NADPH, terminated at the last time point by addition of acetonitrile. The quenched incubations are pelleted by centrifugation (4,000 rpm, 15 min). An aliquot of the supernatant is assayed by LC-MS/MS to quantify the concentration of parent compound in the individual samples.
In vitro intrinsic clearance (CLint, in vitro) is calculated from the time course of the disappearance of the test drug during the microsomal incubation. Each plot is fitted to the first-order elimination rate constant as C(t)=C0*exp(−ke*t), where C(t) and C0 are the concentration of unchanged test drug at incubation time t and that at preincubation and ke is the disappearance rate constant of the unchanged drug. Subsequently, CLint, in vitro (μL min^−1·amount protein) values are converted to predicted CLint, in vivo (mL min^−1 kg^−1) from incubation parameters according to the equation CLint, in vivo=CLint, in vitro×(incubation volume (ml)/amount protein (mg))×(amount protein (mg)/g liver tissue)×(liver weight/body wt.). For better across species comparison the predicted clearance is expressed as percent of the liver blood flow [% QH] (mL min^−1 kg^−1) in the individual species. In general, high stability (corresponding to low % QH) of the compounds across species is desired.

LOVO cells (CRC, G13D) = test: LOVO CTG proliferation assay (120 h); format: cell-based; conditions: Homo sapiens, CellTiter-Glo
Method: (§1) LOVO cells (ATCC CCL-229) are dispensed into 384-well plates, flat and clear bottom (Greiner, PNr. 781091) at a density of 1000 cells per well in 60 μL DMEM (Sigma D6429)+10% Fetal Calf Serum (HyClone, PNr.: SH30084.03) and incubated at 37° C. in a CO2 incubator overnight. The next day, compounds (10 mM stock in DMSO) are added with the ECHO acoustic liquid handler system (Beckman Coulter), including DMSO controls. Plates are incubated for 120 h, and cell viability is measured using CellTiter-Glo luminescent cell viability reagent (Promega product code G7570). Viability (stated as percent of control) is defined as relative luminescence units RLU of each well divided by the RLU of cells in DMSO controls. IC50 values are determined from viability measurements by non-linear regression using a four-parameter model.

[3] = Solubility measurement (DMSO solution precipitation method); format: physicochemical; conditions: aqueous buffer, kinetic from dmso stock, ambient temperature
Method: The DMSO solution is diluted with an aqueous medium (McIlvaine buffer with pH=4.5 or 6.8) to a final concentration of 250 μM. After 24 h of shaking at ambient temperature a potentially formed precipitate is removed by filtration. The concentration of the test compound in the filtrate is determined by LC-UV methods by calibrating the signal to the signal of a reference solution with complete dissolution of the test compound in acetonitrile/water (1:1) with known concentration.

[4] = system: SAS cells (HNSCC, wt amplified); test: SAS CTG proliferation assay (120 h); format: cell-based; conditions: CellTiter-Glo
Method: as §1, with “SAS” for “LOVO”, “(JCRB0260)” for “(ATCC CCL-229)”, “300” for “1000”, “DMEM:F12 (Gibco 31330-038)+10%” for “DMEM (Sigma D6429)+10%”

[5] = McIlvaine buffer pH 4.5, 24 h, read-out: solubility pH 4.5
[6] = McIlvaine buffer pH 6.8, 24 h, read-out: solubility pH 6.8

Compound	IC50 [1] [µM]	HLM QH [2] [%]	IC50 (LOVO cells (CRC, G13D)) [µM]	solubility at 24 h [3, 5] [µg/mL]	solubility at 24 h [3, 6] [µg/mL]	IC50 [4] [µM]
C[C@H]1CNCCCN1c1nccc(-c2noc3c2CCC[C@@]32CCCc3sc(N)c(C#N)c32)n1 (single isomer, unassigned) [IIb-5]	3.62	<24	2.87	92 (≈ 193 µM)	51 (≈ 107 µM)	0.541
CC1Cc2c(-c3ccnc(N4CCCNC[C@@H]4C)n3)noc2C2(CCCc3sc(N)c(C#N)c32)C1 (stereo partly drawn) [IIb-1]	3.57	<24	2.42	57 (≈ 116 µM)	32 (≈ 65.4 µM)	8.23
C[C@H]1CNCCCN1c1nccc(-c2noc3c2CC(F)(F)CC32CCCc3sc(N)c(C#N)c32)n1 (stereo partly drawn) [IIb-2]	5.11	39	3.25	53 (≈ 104 µM)	27 (≈ 52.8 µM)	2.96
C[C@H](Oc1ccnc(-c2noc3c2CCC[C@@]32CCCc3sc(N)c(C#N)c32)n1)[C@@H]1CCCN1C [IIb-3]	0.65	64		> 117	> 120	4.96
C[C@H]1CNCCCN1c1nccc(-c2noc3c2CSCC32CCCc3sc(N)c(C#N)c32)n1 (stereo partly drawn) [IIb-4]	4.13		1.66			8.08
C[C@H]1CNCCCN1c1nccc(-c2noc3c2OCCC32CCCc3sc(N)c(C#N)c32)n1 (stereo partly drawn) [IIb-7]	2.8	<24	0.479	> 103	> 100	6.6
C[C@H](Oc1nccc(-c2noc3c2CCC[C@@]32CCCc3sc(N)c(C#N)c32)n1)[C@@]1(C)CCCN1C [IIe-1]	5.52	>88	3.81	> 115	> 114	4.53
C[C@H]1CNCCN1c1nccc(-c2noc3c2CCC[C@@]32CCCc3sc(N)c(C#N)c32)n1 [IIf-1]	1.51	29	0.479			1.38
C[C@@H]1NCCCN(c2nccc(-c3onc4c3CCC[C@@]43CCCc4sc(N)c(C#N)c43)n2)[C@H]1C [Ib-2]	5.97	51	1.1			1.09
C[C@H]1CNCCCN1c1ncnc(-c2onc3c2CCC[C@@]32CCCc3sc(N)c(C#N)c32)n1 [Ib-4]	> 25	34	7.25	> 104	95 (≈ 199 µM)	0.057
C[C@H]1[C@@H]2CCCN2CCCN1c1nccc(-c2onc3c2CCC[C@@]32CCCc3sc(N)c(C#N)c32)n1 [Id-1]	3.57	>88	10	> 117	> 108	3.99
CO[C@@H]1C[C@@H]([C@H](C)Oc2nccc(-c3onc4c3CCC[C@@]43CCCc4sc(N)c(C#N)c43)n2)N(C)C1 [Ie-1]	5.48	>88	0.333			13.6
C[C@H](Oc1nccc(-c2onc3c2CCC[C@@]32CCCc3sc(N)c(C#N)c32)n1)[C@@H]1C[C@@H](F)CN1C [Ie-2]	2.56	>88	0.567	> 125	41 (≈ 80.6 µM)	8.01
CCN1[C@H]2C[C@H]2C[C@H]1[C@H](C)Oc1nccc(-c2onc3c2CCC[C@@]32CCCc3sc(N)c(C#N)c32)n1 [Ie-3]	8.03	>88	0.539	> 125	> 123	0.37
CC(Oc1nccc(-c2onc3c2CCC[C@@]32CCCc3sc(N)c(C#N)c32)n1)C12CCCN1CCC2 (stereo partly drawn) [Ie-5]	5.86	63	0.178			1.71
C[C@H]1CNCCCN1c1nccc(-c2onc3c2CCC[C@@]32CCCc3sc(N)c(C#N)c32)n1 [If-1]	6.68	25	3.06			8.27
C[C@H](Oc1nccc(-c2onc3c2CCC[C@@]32CCCc3sc(N)c(C#N)c32)n1)[C@@H]1C[C@@H]2C[C@@H]2N1 [If-2]	> 25		10.9	89 (≈ 182 µM)	< 1	8.84
C[C@H](Oc1nccc(-c2onc3c2CCC[C@@]32CCCc3sc(N)c(C#N)c32)n1)[C@@H]1C[C@@H]2C[C@@H]2N1C [Ih-1]	4.21	>88	0.618	> 110	93 (≈ 185 µM)	0.428
